Experimental data reported in US20040019066A1, “Methionine salvage pathway in bacillus” (priority 2002, published 2004).

How the values were obtained:
[1] = test system: B. subtilis; settings: if the methyl sulfur moiety of the molecule is recycled; reference [13]; cited from earlier work
[2] = test system: B. subtilis; assay: Growth in the presence of trifluoromethylthioribose (3F-MTR), resistance phenotype; format: cell-based, Bacillus subtilis; settings: inactivation of mtnK, mtnS, mtnY and mtnW
From the text: Mutants were obtained by transformation of a wild type strain with a random transposon library, selecting for growth in the presence of trifluoromethylthioribose (3F-MTR). The mutants were subsequently tested for growth on plates lacking sulfur source but supplemented with MTR: only those that could not grow were retained for further study. In order to ascertain that the resistant phenotype was not coming from secondary mutations but was directly related to the transposon insert, the chromosome DNA was extracted from each putative mutant and back transformed into a wild type strain selecting for the transposon antibiotic marker. The 3F-MTR and MTR phenotypes were subsequently tested and only those mutants that passed the test were retained. The insertion positions of the transposons were then sequenced. […]
(§1) Bacterial strains and plasmids, and growth media: E. coli and B. subtilis strains as well as plasmids used in this work are listed in Table 3. […] In the latter case, 10 [μl of the sulfur source under investigation was applicated onto paper discs (MTR, 200 mM stock solution and methionine, 100 mM stock solution) deposited at the center of the plate, after bacteria had been uniformly spread at the surface of the plate, and growth was measured around the disK. […] The optical density (OD) of bacterial cultures was measured at 600 nm. […]

[3] = test system: Strain BSHP7014 (mtnW:lacZ amyE::pxyl mtnXYZ); assay: Toxicity of MTR for BSHP7014 strain (paper disc on ED1 minimal medium plates); format: cell-based, Bacillus subtilis; settings: inferred from MTR toxicity in mtnU or mtnW mutants with functional mtnY
Procedure: Toxicity of MTR for BSHP7014 strain. Strain BSHP7014 (mtnW:lacZ amyE::pxyl mtnXYZ) was grown on ED1 minimal medium plates in the presence of sulfate as sulfur source (panel A) or in the absence of any added sulfur source (agar as sole sulfur source, panel B). Xylose was added to the medium in order to trigger the expression of mtnXYZ from the pxyl promoter, 10 μl of methionine (met) or MTR was adsorbed on paper discs and plates were incubated over-night at 37° C. Methionine was used as a control for growth and/or toxicity of the sulfur source.
Two genes in the pathway are dispensable, mtnV and mtnX. The first one encodes a transaminase of which there are nine putative paralogs in the genome of B. subtilis (YwfG, AlaT, AspB, PatA, YhdR, YdfD, PatB, YisV, and HisC). In the same way, MtnX (YkrX) is a member of the phosphatase family pfam00702 ([12], FIG. 6), and therefore of a ubiquitous class of hydrolases (several phosphatase genes, in particular are present in the genome of B. subtilis). This is likely to account for the lack of phenotype under our growth conditions. […] In contrast, we discovered that MTR is toxic when the distal genes are present (when used as sole sulfur source or in the presence of sulfate, see FIG. 7). Because of the weak phenotype of a mtnZ mutant and the absence of phenotype of a mtnX mutant, we can be confident that MtnY acts before MtnW (this is a common feature in operons, where it is generally observed that the more distal genes code for proteins acting in the more proximate steps of the pathway).
as §1, with “3. E. coli TG1 and XL1-Blue were used for cloning experiments (TG1 for single cross-over recombination and XL1-Blue for double cross-over recombination). Despite the fact that there are no public regulations yet in this domain in China, all experiments were performed in accordance with the European regulation requirements concerning the contained use of Genetically Modified Organisms of Group-I (French agreement N^o 2735).” for “3.”

Structure (SMILES) | Toxicity of the MTR analog [1] | Phenotype towards 3F-MTR [2] | Toxicity to the cells [3]
O=C[C@H](O)[C@H](O)[C@H](O)CSC(F)(F)F [3F-MTR, 5-thio-5-5-S-trifluoromethyl-D-ribose] | toxic | resistance | –
CSCC(O)C(O)C(=O)COP(=O)(O)O (stereo not drawn) [5-thiomethylribulose-1-phosphate] | – | – | toxic
